From ChEMBL document CHEMBL1201862, “PubChem BioAssay data set” (2004)
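Interpolation was linear, between the two tested concentrations surrounding the appropriate level; five concentrations were tested over 48 hours in 96-well plates. GI50 = concentration required for 50% inhibition of growth.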 The source made the active and inactive calls. Cut-off read from the data, not from the text of the source: active = GI50 up to about 1.1 µM and inactive = higher.

What was measured:
Experiment in all cases: DTP human tumour cell line panel, 48 h
[1] = system: NCI-H460
[2] = system: SNB-78
[3] = system: UACC-62
[4] = system: OVCAR-8
[5] = system: Malme-3M
[6] = system: MOLT-4
[7] = system: U-251
[8] = system: M19-MEL
[9] = system: A498
[10] = system: SW-620
[11] = system: DMS-114
[12] = system: K562
[13] = system: SF-539
[14] = system: OVCAR-5
[15] = system: LXFL 529
[16] = system: RPMI-8226
[17] = system: IGROV-1
[18] = system: KM12
[19] = system: SN12C
[20] = system: SK-MEL-2
[21] = system: HOP-92
[22] = system: HOP-18
[23] = system: RXF 631
[24] = system: UACC-257
[25] = system: SK-OV-3
[26] = system: A549
[27] = system: HCT-15
[28] = system: SF-295
[29] = system: HCT-116
[30] = system: UO-31
[31] = system: DLD-1
[32] = system: XF498
[33] = system: NCI-H522
[34] = system: 786-0
[35] = system: SNB-19
[36] = system: ACHN
[37] = system: DMS-273
[38] = system: KM-20L2
[39] = system: SF-268
[40] = system: EKVX
[41] = system: RXF 393
[42] = system: CCRF-CEM
[43] = system: HT-29
[44] = system: CAKI-1
[45] = system: COLO 205
[46] = system: OVCAR-3
[47] = system: NCI-H23
[48] = system: M14
[49] = system: HCC 2998
[50] = system: SNB-75
[51] = system: LOX IMVI
[52] = system: SK-MEL-5
[53] = system: OVCAR-4
[54] = system: SK-MEL-28
[55] = system: HOP-62
[56] = system: TK-10
[57] = system: NCI-H226
[58] = system: HL-60

O=S(=O)(O)c1ccc(-c2c3nc(c(-c4ccc(S(=O)(=O)O)cc4)c4ccc([nH]4)c(-c4ccc(S(=O)(=O)O)cc4)c4nc(c(-c5ccc(S(=O)(=O)O)cc5)c5ccc2[nH]5)C=C4)C=C3)cc1
GI50 [1]: > 100 µM (inactive)
GI50 [2]: 44.6 µM (inactive)
GI50 [3]: > 100 µM (inactive)
GI50 [4]: > 100 µM (inactive)
GI50 [5]: > 100 µM (inactive)
GI50 [6]: > 100 µM (inactive)
GI50 [7]: > 100 µM (inactive)
GI50 [8]: > 100 µM (inactive)
GI50 [9]: 31 µM (inactive)
GI50 [10]: > 100 µM (inactive)
GI50 [11]: 40.2 µM (inactive)
GI50 [12]: > 100 µM (inactive)
GI50 [13]: > 100 µM (inactive)
GI50 [14]: > 100 µM (inactive)
GI50 [15]: > 100 µM (inactive)
GI50 [16]: > 100 µM (inactive)
GI50 [17]: > 100 µM (inactive)
GI50 [18]: > 100 µM (inactive)
GI50 [19]: > 100 µM (inactive)
GI50 [20]: 27.1 µM (inactive)
GI50 [21]: 21.8 µM (inactive)
GI50 [22]: > 100 µM (inactive)
GI50 [23]: 80.9 µM (inactive)
GI50 [24]: > 100 µM (inactive)
GI50 [25]: > 100 µM (inactive)
GI50 [26]: 55 µM (inactive)
GI50 [27]: > 100 µM
GI50 [28]: 42.7 µM (inactive)
GI50 [29]: > 100 µM (inactive)
GI50 [30]: 19.5 µM (inactive)
GI50 [31]: > 100 µM (inactive)
GI50 [32]: > 100 µM (inactive)
GI50 [33]: 26.5 µM (inactive)
GI50 [34]: > 100 µM (inactive)
GI50 [35]: > 100 µM (inactive)
GI50 [36]: 86.3 µM (inactive)
GI50 [37]: 95.5 µM (inactive)
GI50 [38]: > 100 µM (inactive)
GI50 [39]: 92.5 µM (inactive)
GI50 [40]: > 100 µM (inactive)
GI50 [41]: 19.9 µM (inactive)
GI50 [42]: > 100 µM (inactive)
GI50 [43]: > 100 µM (inactive)
GI50 [44]: > 100 µM (inactive)
GI50 [45]: > 100 µM (inactive)
GI50 [46]: > 100 µM (inactive)
GI50 [47]: 58.1 µM (inactive)
GI50 [48]: 90.6 µM (inactive)
GI50 [49]: > 100 µM (inactive)
GI50 [50]: 17.3 µM (inactive)
GI50 [51]: > 100 µM (inactive)
GI50 [52]: > 100 µM (inactive)
GI50 [53]: 45.6 µM (inactive)
GI50 [54]: 16.5 µM (inactive)
GI50 [55]: > 100 µM (inactive)
GI50 [56]: > 100 µM (inactive)

CCOC(=O)C(=O)Nc1ccccc1CC
GI50 [1]: > 100 µM (inactive)
GI50 [2]: > 10 µM (inactive)
GI50 [57]: > 100 µM (inactive)
GI50 [3]: > 100 µM (inactive)
GI50 [4]: > 100 µM (inactive)
GI50 [5]: > 100 µM (inactive)
GI50 [58]: > 100 µM (inactive)
GI50 [6]: > 100 µM (inactive)
GI50 [7]: > 100 µM (inactive)
GI50 [8]: > 100 µM (inactive)
GI50 [10]: > 100 µM (inactive)
GI50 [11]: > 100 µM (inactive)
GI50 [12]: > 100 µM (inactive)
GI50 [13]: > 100 µM (inactive)
GI50 [14]: > 100 µM (inactive)
GI50 [15]: > 100 µM (inactive)
GI50 [16]: > 100 µM (inactive)
GI50 [17]: > 100 µM (inactive)
GI50 [18]: > 100 µM (inactive)
GI50 [19]: > 100 µM (inactive)
GI50 [20]: > 100 µM (inactive)
GI50 [21]: > 100 µM (inactive)
GI50 [22]: > 100 µM (inactive)
GI50 [23]: > 100 µM (inactive)
GI50 [24]: > 100 µM (inactive)
GI50 [25]: > 100 µM (inactive)
GI50 [26]: > 100 µM (inactive)
GI50 [28]: > 100 µM (inactive)
GI50 [29]: > 100 µM (inactive)
GI50 [30]: > 100 µM (inactive)
GI50 [31]: > 100 µM (inactive)
GI50 [32]: > 100 µM (inactive)
GI50 [33]: > 100 µM (inactive)
GI50 [34]: > 100 µM (inactive)
GI50 [35]: > 100 µM (inactive)
GI50 [36]: > 100 µM (inactive)
GI50 [39]: > 100 µM (inactive)
GI50 [40]: > 100 µM (inactive)
GI50 [41]: > 100 µM (inactive)
GI50 [42]: > 100 µM (inactive)
GI50 [43]: > 100 µM (inactive)
GI50 [44]: > 100 µM (inactive)
GI50 [46]: > 100 µM (inactive)
GI50 [47]: > 100 µM (inactive)
GI50 [48]: > 100 µM (inactive)
GI50 [49]: > 100 µM (inactive)
GI50 [51]: > 100 µM (inactive)
GI50 [52]: > 100 µM (inactive)
GI50 [53]: > 100 µM (inactive)
GI50 [54]: > 100 µM (inactive)
GI50 [55]: > 100 µM (inactive)
GI50 [56]: > 100 µM (inactive)

C/C=C/C=N/N(C(=O)c1cc([N+](=O)[O-])cc([N+](=O)[O-])c1)C1=NN=C(c2ccccc2)C(c2ccccc2)N1 (stereo not given)
GI50 [1]: 91.2 µM (inactive)
GI50 [2]: 52.8 µM (inactive)
GI50 [57]: > 100 µM (inactive)
GI50 [3]: 51.8 µM (inactive)
GI50 [4]: 89.9 µM (inactive)
GI50 [5]: 25.6 µM (inactive)
GI50 [58]: 18.6 µM (inactive)
GI50 [6]: 25.7 µM (inactive)
GI50 [7]: > 100 µM (inactive)
GI50 [8]: 21.6 µM (inactive)
GI50 [9]: > 100 µM (inactive)
GI50 [10]: 55 µM (inactive)
GI50 [11]: 21 µM (inactive)
GI50 [12]: 52.8 µM (inactive)
GI50 [13]: 42.5 µM (inactive)
GI50 [14]: > 100 µM (inactive)
GI50 [16]: 24.4 µM (inactive)
GI50 [17]: > 100 µM (inactive)
GI50 [18]: 46.2 µM (inactive)
GI50 [19]: 57.9 µM (inactive)
GI50 [20]: 74 µM (inactive)
GI50 [21]: 11.1 µM (inactive)
GI50 [22]: > 100 µM (inactive)
GI50 [23]: > 100 µM (inactive)
GI50 [24]: 26.5 µM (inactive)
GI50 [25]: > 100 µM (inactive)
GI50 [26]: 61.2 µM (inactive)
GI50 [27]: 41.4 µM
GI50 [28]: 94.6 µM (inactive)
GI50 [29]: 30.2 µM (inactive)
GI50 [30]: 43.9 µM (inactive)
GI50 [31]: 75.7 µM (inactive)
GI50 [32]: 36 µM (inactive)
GI50 [33]: 21.4 µM (inactive)
GI50 [34]: 80.4 µM (inactive)
GI50 [35]: > 100 µM (inactive)
GI50 [36]: 97.5 µM (inactive)
GI50 [37]: 46 µM (inactive)
GI50 [38]: 32.1 µM (inactive)
GI50 [39]: 47.2 µM (inactive)
GI50 [40]: > 100 µM (inactive)
GI50 [41]: > 100 µM (inactive)
GI50 [42]: 36.7 µM (inactive)
GI50 [43]: 35.6 µM (inactive)
GI50 [44]: > 100 µM (inactive)
GI50 [45]: 30.5 µM (inactive)
GI50 [46]: 23.4 µM (inactive)
GI50 [47]: 26.9 µM (inactive)
GI50 [48]: 33.3 µM (inactive)
GI50 [49]: 34 µM (inactive)
GI50 [50]: > 100 µM (inactive)
GI50 [51]: 78.5 µM (inactive)
GI50 [52]: 27.2 µM (inactive)
GI50 [53]: 68.4 µM (inactive)
GI50 [54]: 97.7 µM (inactive)
GI50 [55]: > 100 µM (inactive)
GI50 [56]: > 100 µM (inactive)
